Read-outs that look alike come from different tables or passages of the source.
Key:
[1] = test system: sleep-wakefulness cycle in rats
Description: In a first set of experiments, the oral (p.o.) and subcutaneous (s.c.) actions of Compound A were evaluated in the sleep-wakefulness cycle in rats. For this purpose the salt forms multifumarate (mfu) or fumarate (fu) were used.
The experiments were carried out in nonanesthetized unrestrained male Wistar rats prepared with chronically implanted electrodes for the recording of the electrocorticogram (ECoG). The animals were caged in a room, maintained at a constant temperature of 22° C. and artificially lighted for 12 hours daily. Before beginning of the experiment, the animals were given a 1 to 3 day period of acclimatization in the recording cages and had complete freedom of movement even when the recording cables were attached. The ECOG recordings were made continuously during 22 to 23-hours period, 15 min after drug administration. Each animal served as its own control. In one experiment, recordings of EcoG were also obtained after administration of distilled water (vehicle used with Compound A) for comparison with no administration, or administration of Compound A.

[2] = test system: sleep-wakefulness cycle in rats with lesions of the nucleus basalis of Meynert (NBM) and locus coeruleus (LC)
Description: In a second set of experiment, oral actions of Compound A were evaluated in the sleep-wakefulness cycle in rats with lesions of the nucleus basalis of Meynert (NBM) and locus coeruleus (LC). For this purpose the salt form multifumarate (mfu) was used.
Male rats were used. They were anesthetized with pentobarbital (50 mg/kg i.p.) and positioned in a stereotaxic apparatus with the upper incisor bar set 5 mm (locus coeruleus, LC) or 3.3 mm (Nucleus basalis of Meynert, NBM) below the interaural line. The lesions were carried out with a radio frequency lesion generator at 60° C. in 10 sec. A corresponding group of sham lesioned rats was carried out. The animals were individually kept in single cage during 6 months after the lesions. Five months after lesion, cortical electrodes were implanted. The animals were caged in a room, maintained at a constant temperature of 22° C. and artificially lighted for 12 hours daily. Before beginning of the experiment, the animals were given a 1 day period of acclimatization in the recording cages. These were tall plastic cylinders within the animals had complete freedom of movement even when the recording cables were attached. ECOG recordings were made continuously during 22-hours period/day, 15 min after the installation of the animal or 15 min after drug administration.
Four groups of animals were studied (A1-4), and statistical analysis (T-test, p<0.05) was performed between the different groups.
A1: 5 lesioned animals, which had received 35 days after lesion 3 mg/kg p.o. of
Compound A during 5 days. Implementation of electrodes 5 months later.
Recording of ECOG on the 22d and 23d days after implantation.
A2: Same as A1 but treated with vehicle instead of Compound A.
A3: S Same as A1 but with Sham rats instead of lesioned animals.
A4: Same as A3 but treated with vehicle instead of Compound A.

[3] = 10 mg/kg p.o., 7-11 hours after administration
[4] = 30 mg/kg p.o., first 4 hours of recording
[5] = 3 mg/kg p.o. (mfu) during 5 days, 35 days after lesion, all recording periods

Cc1nccn1Cc1ccccn1 [Compound A, [2-(2-methylimidazol-1-yl)methyl]pyridine]
REM sleep duration ([1]; 1 mg/kg s.c., first 2 hours): reduced | wakefulness ([1]; 1 mg/kg s.c., first 4 hours): enhanced | slow-wave sleep (SWS) sleep onset ([1]; 3 mg/kg p.o.): significantly delayed | active waking ([1]; 3 mg/kg p.o., between 0-4 and 7-11 hours): tended to be increased | REM sleep duration ([1]; 3 mg/kg p.o., first 4 hours): reduced | classical sleep ([1]; 3 mg/kg p.o., first 4 hours): reduced | wakefulness ([1]; 3 mg/kg p.o., first 4 hours): increase | active waking ([1]; 3 mg/kg p.o., last recording interval 18.75-23 hours): significantly increased | REM sleep onset ([1]; 10 mg/kg p.o.): strongly delayed | SWS onset ([1]; 10 mg/kg p.o.): tended to also delay | active waking ([1]; 10 mg/kg p.o., 0-4 hours after administration): significantly increased | REM sleep [1, 3]: tended to be increased | SWS duration [1, 3]: decreased | waking time [1, 3]: significantly increased | classical sleep ([1]; 10 mg/kg p.o., during 3 hours): decreased | waking time ([1]; 10 mg/kg p.o., first 6 hours): tended to increase | REM sleep duration ([1]; 10 mg/kg p.o., for several hours): significantly reduced | REM sleep onset ([1]; 30 mg/kg p.o.): strongly delayed | SWS onset ([1]; 30 mg/kg p.o.): strongly delayed | time the decrease of REM sleep lasted ([1]; 30 mg/kg p.o.): about 11 hours | time the increase of wakefulness lasted ([1]; 30 mg/kg p.o.): about 9 hours | REM sleep duration ([1]; 30 mg/kg p.o., 4-7 hours after administration): decreased | REM sleep duration [1, 4]: decreased | SWS duration [1, 4]: decreased | waking time [1, 4]: increased | changes in the rat nycthemeral rhythm ([1]; 3, 10 and 30 mg/kg (mfu) p.o., 3 and 10 mg/kg (fu) p.o., 1, 3 and 10 mg/kg (mfu) s.c., dose dependent): significant changes | effects on sleep-wakefulness cycle compared with oral administration ([1]; 3 and 10 mg/kg s.c.): nearly the same effects as by oral administration | effect availability (s.c. versus p.o. action) ([1]; action quite similar by s.c. and p.o. administration): good | effects on the sleep wakefulness cycle compared with the mfu form ([1]; fu salt form, 3 and 10 mg/kg p.o.): same effects | lesion-induced decrease of classical sleep [2, 5]: partly prevented | lesion-induced increase of wakefulness [2, 5]: partly prevented | alterations of the sleep-wakefulness cycle due to the lesions ([2]; 3 mg/kg p.o. (mfu) during 5 days, 35 days after lesion, recording more than 5 months later, all recording periods): important reduction | nycthemeral cycle abnormalities induced by simultaneous LC+NBM lesions ([2]; several months after last administration): reduce

Source: patent publication US20080280954A1, “Method of Improving Wakefulness” (VANDA PHARMACEUTICALS, INC, priority 2005, published 2008)
